According to patent US5612378A, “Bis-arylsulfonylaminobenzamide derivatives and the use thereof as factor Xa inhibitors” (priority 1995, dated 1997):

B1: antistasin: leech-derived, 119-amino acid protein antistasin (protein, UniProt P15358 18-136, looked up)
Antistasin: QGPFGPGCEEAGCPEGSACNIITDRCTCSGVRCRMHCPHGFQRSRYGCEFCKCRLEPMKATCDISECPEGMMCSRLTNKCDCKIDINCRKTCPNGLKRDKLGCEYCECRPKRKLIPRLS

Tests used:
[1] = target: human α-thrombin (Homo sapiens, UniProt P00734); assay: In vitro inhibition of purified human thrombin (hydrolysis of Bz-Phe-Val-Arg-pNa); format: biochemical; conditions: inhibitor at 6 μM, [thrombin]=36 nM, [Bz-Phe-Val-Arg-pNa]=66 μM, pH 7.5, 37° C.
Procedure: The ability of the compounds of the present invention to act as inhibitors of thrombin, factor Xa and plasmin catalytic activity was assessed by determining the concentration which inhibited enzyme activity by 50% using purified human enzymes. The concentration of added inhibitor that caused a 50% decrease in the initial rate of hydrolysis was defined as the IC50 value.
(§1) All assays are based on the ability of the test compound to inhibit the hydrolysis of a peptide p-nitroanilide substrate. In a typical experiment, appropriate substrate is prepared in DMSO, and diluted into an assay buffer consisting of 50mM HEPES and 130 mM NaCl at a pH of 7.5. The final concentration for each of the substrates is listed below. All substrate concentrations are at least 10 fold lower than Km to insure inhibition is competitive. Test compounds are prepared as 1 mg/ml solutions in DMSO, and three additional 10-fold dilutions in DMSO are prepared. Enzyme solutions are prepared at the concentrations listed below in assay buffer.
(§2) In a typical IC50 determination, into each well of a 96 well plate is pipetted 280 uL of substrate solution, 10 μL of inhibitor solution, and the plate is allowed to thermally equilibrate at 37° C. in a Molecular Devices Plate Reader for at least 10 minutes. Reactions are initiated by the addition of a 20 μL aliquot of enzyme, and the absorbance increase at 405 nm is recorded for 15 minutes. Data corresponding to less than 10% of the total substrate hydrolysis is used in the calculations. The ratio of the velocity (rate of the change in absorbance as a function of time) for a sample containing no inhibitor is divided by the velocity of a sample containing inhibitor, and is plotted as a function of inhibitor concentration. The inverse of the slope is the concentration of inhibitor which produces a 50% decrease in activity of the enzyme. This concentration is referred to as the IC50.
Thrombin activity was assessed as the ability to hydrolyse the substrate N-benzoyl-Phe-Val-Arg-p-nitroanilide (Bz-Phe-Val-Arg-pNa), and was obtained from Sigma Chemical Company (St. Louis, Mo.). Substrate solutions were prepared at a concentration of 60 μM (60 μM<<Km =1.2 mM) in assay buffer. Final DMSO concentration was 0.3%. […] Final reagent concentrations were: [thrombin]=36 nM, [Bz-Phe-Val-Arg-pNa]=66 μM, [inhibitor]=60 to 0.06 μM.

[2] = target: T1, Factor Xa (Homo sapiens, UniProt P00742); assay: In vitro inhibition of purified human factor Xa (hydrolysis of Bz-Ile-Glu-Gly-Arg-pNa); format: biochemical; conditions: purified human enzyme, [Factor Xa]=10 nM, [Bz-Ile-Glu-Gly-Arg-pNa]=26 μM, pH 7.5, 37° C.
T1 construct: purchased Enzyme Research Laboratories, Inc
T1 sequence (P00742 235-488 limits assumed): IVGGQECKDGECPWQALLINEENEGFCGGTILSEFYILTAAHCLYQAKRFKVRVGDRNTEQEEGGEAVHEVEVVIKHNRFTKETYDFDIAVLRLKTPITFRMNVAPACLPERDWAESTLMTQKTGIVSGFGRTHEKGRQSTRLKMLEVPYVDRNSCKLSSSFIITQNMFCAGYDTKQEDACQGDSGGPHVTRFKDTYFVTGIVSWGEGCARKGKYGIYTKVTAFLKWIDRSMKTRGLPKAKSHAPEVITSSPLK
T1 sequence (P00742 41-179 partner limits assumed): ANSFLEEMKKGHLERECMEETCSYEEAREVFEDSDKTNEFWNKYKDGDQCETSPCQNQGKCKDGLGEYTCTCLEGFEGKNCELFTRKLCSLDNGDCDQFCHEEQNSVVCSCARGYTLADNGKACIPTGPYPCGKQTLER
Procedure: The ability of the compounds of the present invention to act as inhibitors of thrombin, factor Xa and plasmin catalytic activity was assessed by determining the concentration which inhibited enzyme activity by 50% using purified human enzymes.
as §1, with “All substrate concentrations are at least 10 fold lower than Km to insure inhibition is competitive.” left out
as §2, with “Reactions” for “In a typical IC50 determination, into each well of a 96 well plate is pipetted 280 uL of substrate solution, 10 μL of inhibitor solution, and the plate is allowed to thermally equilibrate at 37° C. in a Molecular Devices Plate Reader for at least 10 minutes. Reactions”
Factor Xa activity was assessed as the ability to hydrolyse the substrate Bz-Ile-Glu-Gly-Arg-pNa, and was obtained from Sigma. […] Final DMSO concentration was 0.3%.

[3] = given as adjuncts to thrombolysis; cited from earlier work
[4] = system: experimental restenosis; conditions: in vivo; cited from earlier work
[5] = system: smooth muscle cell; conditions: U.S. Pat. No. 5,385,885; cited from earlier work
[6] = system: factor Xa; conditions: cited from earlier work

Molecule	inhibition at 6 µM [1] [%]	IC50 [2] [nM]	clot lysis and reocclusion [3]	reduction of experimental restenosis [4]	smooth muscle cell proliferation inhibitory activity [5]	inhibition of factor Xa [6]
O=C(NCCCCCNC(=O)c1cccc(NS(=O)(=O)c2ccc3ccccc3c2)c1)c1cccc(NS(=O)(=O)c2ccc3ccccc3c2)c1 [Example 4, 1,5-di[3-(2-naphthalenylsulfonylamino)benzamido]pentane]	0	3000				
O=C(NCCCCCCCCNC(=O)c1cccc(NS(=O)(=O)c2ccc3ccccc3c2)c1)c1cccc(NS(=O)(=O)c2ccc3ccccc3c2)c1 [Example 5, 1,8-di[3-(2-naphthalenylsulfonylamino)benzamido]octane]	20	2100				
O=C(NCCCN1CCN(CCCNC(=O)c2cccc(NS(=O)(=O)c3ccc4ccccc4c3)c2)CC1)c1cccc(NS(=O)(=O)c2ccc3ccccc3c2)c1 [Example 6, 1,4-di-[3-(2-naphthalenylsulfonylamino)benzamidopropyl]piperazine]	0	5200				
O=C(NCc1cccc(CNC(=O)c2cccc(NS(=O)(=O)c3ccc4ccccc4c3)c2)c1)c1cccc(NS(=O)(=O)c2ccc3ccccc3c2)c1 [Example 7, 1,3-di-[3-(2-naphthalenylsulfonylamino)benzamidomethyl]benzene]	20	2400				
TAP: soft tick derived protein TAP (tick anticoagulant peptide) (YNRLCIKPRDWIDECDSNEGGERAYFRNGKGGCDSFWICPEDHTGADYYSSYRDCFNACI; UniProt P17726 1-60, looked up)			accelerated clot lysis and prevented reocclusion	reduce experimental restenosis	smooth muscle cell proliferation inhibitory activity	
ecotin: The peptide ecotin is another selective, reversible, tight-binding inhibitor of factor Xa						selective, reversible, tight-binding inhibitor of factor Xa
B1			accelerated clot lysis and prevented reocclusion	reduce experimental restenosis	smooth muscle cell proliferation inhibitory activity	
